Test system: plasma lyso-Gb3
Test: Phase 3 study, ERT-naïve Fabry patients: plasma lyso-Gb3 by liquid chromatography-mass-spectroscopy
Assay type: in vivo, human
Settings: baseline (or month 6) to month 24
Protocol: Globotriaosylceramide and Globotriaosylsphingosine. Plasma lyso-Gb3 and 24-hour urine GL-3 were analyzed by liquid chromatography-mass-spectroscopy using a novel stable isotope-labeled internal standard, 13C6-lyso-Gb3 (lower-limit-of-quantification: 0.200 ng/mL, 0.254 nmol/L).
For all outcomes except GL-3 inclusions per kidney interstitial capillary, data are pooled for patients within phenotype subgroups regardless of treatment allocation for the first six months (migalastat or placebo).

With OC[C@H]1NC[C@H](O)[C@@H](O)[C@H]1O [migalastat] the “average (SD) change in plasma lyso-Gb3” value (classic males) was −36.04 (34.48) nmol/L and the “average (SD) change in plasma lyso-Gb3” value (other patients) was −16.33 (19.73) nmol/L.

— US20210038579A1, “Treatment Of Patients With Classic Fabry Disease” (Amicus Therapeutics, Inc., priority 2018, published 2021)
